The test system of assay [1] is Akt. The assay is described as follows: Western blot of Akt in MDA-MB-231 cells. The assay is classed as cell-based. The following applies: 24 h. Here is the method: (§1) MDA-MB-231 cells were grown in a water jacketed incubator at 37 °C with 5 % CO2. Cells were cultured in DMEM (Corning) media supplemented with 10 % heat-inactivated fetal bovine serum (FBS, Gibco, 10438-026) and 1 % Penicillin-Streptomycin (VWR, K952-100 mL). Cells were seeded in clear, flat bottom 6-well plates with each well containing 500,000 cells and grown to 80 % confluency. The medium was replaced with fresh DMEM that contains compounds of interest at the indicated concentrations or vehicle control, and cells were incubated for 24 h. Following treatment, MDA-MB-231 cells were then lysed in RIPA buffer supplemented with protease and phosphatase inhibitors. Protein concentration in lysates were determined by BCA assay (Thermo). Equal amounts of protein were separated by SDS-PAGE on 10 % polyacrylamide gels and […] onto nitrocellulose membranes. Transfer efficiency and total protein loading were confirmed by Ponceau staining. Membranes were blocked with 6 % nonfat dry milk and probed with primary antibodies against GAPDH (Cell Signaling, 14C10), Hsp70 (Cell Signaling, C92F3A), Akt, and Integrin α2 (Cell Signaling, D8V7H) each diluted 1:1000. Secondary antibodies were also used at 1:1000 (Southern Biotech), immunoblots were developed using ECL substrate (Amersham, 45-000-999) and visualized on a ChemiDoc Imaging System (BioRad).
Background: A western blot detects proteins with antibodies after separation by electrophoresis.

The test system of assay [2] is Hsp70. The assay can be described thus: Western blot of Hsp70 in MDA-MB-231 cells. In kind it is cell-based. The following applies: 24 h. Here is the method: as §1
The test system of assay [3] is Grp94. The assay can be described thus: Competitive binding fluorescence polarization (FP) assay, Grp94. The following applies: for Polarization Read 1 / Polarization Read 2 / Polarization Read 3: replicate wells, protein not given. How it is done: The Fluorescence Polarization Assay (FP) was performed in 96-well flat-bottom plates (Santa Cruz Biotechnology) with a final volume of 100 μL per well. […] Each well contained 10 nM of Hsp90α or Grp94 (Enzo Biochem Inc.) and 6 nM of FITC-GDA (fluorescent tracer, stock in DMSO). Compounds were tested in triplicate at final concentrations of 100 μM, 10 μM, 1 μM, 0.1 μM and 0.01 μM with each final concentration containing 1 % DMSO. Each plate included control wells containing: (i) buffer only (background polarization), (ii) protein plus tracer (maximum polarization control), and (iii) tracer only (minimum polarization control). Plates were incubated on a rocker at 4 °C for 24 h.
A general note: Fluorescence polarisation rises when a labelled molecule tumbles more slowly, as on binding a larger partner.

Assay [4] concerns integrin α2. The assay can be described thus: Western blot of integrin α2 in MDA-MB-231 cells. In kind it is cell-based. Particulars: 5 μM, 24 h. Here is the method:
as §1

In assay [5] the test system is Y437H myocilin. The assay is described as follows: Cellular assay for mutant myocilin in dox-inducible trabecular meshwork (TM-1) cells. The assay is classed as cell-based, human. How it is done: (§2) Immortalized human trabecular meshwork (TM-1) cells stably transduced with WT or Y437H myocilin (50 MOI) were grown in low-glucose (1 g/L) Dulbecco’s modified Eagle medium with glutamine (DMEM, Gibco) supplemented with 10 % FBS (Hyclone), 1–2 % PS (Gibco) at 37 °C, and 200 μg/mL hygromycin (Corning), TM-1 cells were seeded in 6 well plates at equivalent cell counts/replicate. The following day, myocilin expression was induced by treating the cells with 2 μg/mL doxycycline (dox, Thermo-Scientific) in serum-free media. After 48 h, media was replaced with serum-free media containing 2 μg/mL dox to induce myocilin expression and 47 at the designated concentration for an additional 24 h.
Cells were lysed using lysis buffer (100 mM Tris-HCl pH 7.4, 3 mM EGTA, 5 mM MgCl2, 0.5 % Triton X 100) supplemented with 0.6 mM phenylmethylsulfonyl fluoride, and a 1:100 v/v protease inhibitor cocktail containing complete EDTA-free protease inhibitor (Roche) and 1 % (v/v) phosphatase inhibitor cocktails II and III (Sigma-Aldrich). Cells lysed by rocking in lysis buffer for ~2 h at 4 °C. Detergent-soluble and detergent insoluble fractions were separated by centrifugation. Protein concentration of the detergent-soluble fractions was determined by BCA assay (Pierce).
The detergent-soluble samples were prepared in equal protein concentration in 5X Laemmli buffer containing 5–10 % (v/v) β-mercaptoethanol. The samples were heated at 95 °C for 5 min and loaded on 12 % Tris-glycine gels. The gels were then transferred to methanol-activated PVDF membranes using the Trans-blot Turbo transfer system (Bio-Rad). […] Quantification of protein bands on Western blots was performed using ImageLab (Bio-Rad). Measurements of band density were normalized to actin loading control within each experiment, and the statistical significance was determined with one-way ANOVA with GraphPad Prism.

The target of assay [6] is Hsp90α (Homo sapiens, UniProt P07900). The assay can be described thus: Competitive binding fluorescence polarization (FP) assay, Hsp90α. The following applies: FITC-GDA tracer, mean of triplicates ± SD, read-out: Apparent Kd Hsp90α. How it is done:
The Fluorescence Polarization Assay (FP) was performed in 96-well flat-bottom plates (Santa Cruz Biotechnology) with a final volume of 100 μL per well. The assay buffer consisted of 20 mM HEPES, 50 mM KCl, 10.5 mM MgCl2, 20 mM Na2MoO4, 0.01 % NP-40 detergent (NP-40), and pH 7.3 with fresh 2 mM dithiothreitol (DTT) and 0.1 mg/mL bovine γ-globulin (BGG). Each well contained 10 nM of Hsp90α or Grp94 (Enzo Biochem Inc.) and 6 nM of FITC-GDA (fluorescent tracer, stock in DMSO). Compounds were tested in triplicate at final concentrations of 100 μM, 10 μM, 1 μM, 0.1 μM and 0.01 μM with each final concentration containing 1 % DMSO. Each plate included control wells containing: (i) buffer only (background polarization), (ii) protein plus tracer (maximum polarization control), and (iii) tracer only (minimum polarization control). Plates were incubated on a rocker at 4 °C for 24 h. Fluorescence polarization (mP units) was measured at 37 °C using excitation and emission wavelengths of 485 and 528 nm, respectively. Apparent Kd values were determined via calculations from the polarization data obtained at which the tracer was displaced by 50 % by the compounds of interest.
[I50] = concentration of free inhibitor at 50% inhibition, [L50] = concentration of free fluorescence labeled ligand molecule at 50% inhibition, [P0] = concentration of free protein at 0% inhibition, K = dissociation constant of the protein−ligand complex.^4

Assay [7] has as its system wild-type myocilin. The assay can be described thus: Cellular assay for wild-type myocilin in dox-inducible trabecular meshwork (TM-1) cells. Particulars: higher dose (30 μM), 24 h, Western blot. The assay is classed as cell-based, human. Here is the method:
as §2
Cells were lysed using lysis buffer (100 mM Tris-HCl pH 7.4, 3 mM EGTA, 5 mM MgCl2, 0.5 % Triton X 100) supplemented with 0.6 mM phenylmethylsulfonyl fluoride, and a 1:100 v/v protease inhibitor cocktail containing complete EDTA-free protease inhibitor (Roche) and 1 % (v/v) phosphatase inhibitor cocktails II and III (Sigma-Aldrich). Cells lysed by rocking in lysis buffer for ~2 h at 4 °C. […] Protein concentration of the detergent-soluble fractions was determined by BCA assay (Pierce).
The detergent-soluble samples were prepared in equal protein concentration in 5X Laemmli buffer containing 5–10 % (v/v) β-mercaptoethanol. […] Quantification of protein bands on Western blots was performed using ImageLab (Bio-Rad). […]

This note sets out measurements from article PMC13205134, “Design, synthesis, and biological properties exhibited by 1,2,3-triazole based Grp94-selective inhibitors” (European journal of medicinal chemistry, 2025).

Where “and” joins values, the source holds several entries; their conditions need not be identical. Identical values can stand only once. Entries after “also recorded” stand apart in the source; their conditions may differ.

Regarding `CCCc1ccccc1Cc1cnnn1CCc1c(Cl)c(O)cc(O)c1C(=O)OC` [Compound 47, methyl 3-chloro-4,6-dihydroxy-2-(2-(5-(2-propylbenzyl)-1H-1,2,3-triazol-1-yl)ethyl)benzoate], in assay [1], the “effect on Akt (cytosolic Hsp90 client protein)” value is “did not affect Akt”. Also, in assay [2], the Hsp70 expression entry was “does not induce Hsp70 expression”. Besides, the “Polarization Read 1” value is 298 and 289 and 285 in assay [3] (0.01 µM); 247 and 250 and 234 in assay [3] (0.1 µM); 189 and 179 and 182 in assay [3] (1 µM); 170 and 191 and 174 in assay [3] (10 µM). The “Polarization Read 2” value is 278 and 288 and 270 in assay [3] (0.01 µM); 234 and 231 and 237 in assay [3] (0.1 µM); 178 and 177 and 180 in assay [3] (1 µM); 172 and 178 and 176 in assay [3] (10 µM). Also, the “Polarization Read 3” value is 275 and 284 and 279 in assay [3] (0.01 µM); 220 (2×) and 210 in assay [3] (0.1 µM); 185 (2×) and 186 in assay [3] (1 µM); 169 and 185 and 177 in assay [3] (10 µM). In addition, the “improvement in affinity compared to BnIm” value in assay [3] (Grp94 affinity, relative to first generation BnIm) is listed as 15 fold. Moreover, the “improvement in affinity compared to BnPh” value in assay [3] (Grp94 affinity, relative to second generation BnPh) was determined as 8 fold. Further, in assay [3] (Grp94 affinity, relative to the 2-ethyl analog), the “increase in affinity on extension of ethyl to propyl group” value is on record as 10 fold. Also, in assay [3] (selectivity over Hsp90α, n.s. = non-selective), the “Fold selective for Grp94” value was 121 fold. In assay [4], the “levels of Integrin α2” value is reported as “induced the degradation of integrin α2; also recorded: reduced the levels of Integrin α2”. Further, in assay [5] (3 μM, 24 h, TM-1 cells, Western blot), the Y437H-mutant myocilin levels result is “statistically significant reduction”. Moreover, the “reduction of levels of intracellular myocilin” value in assay [5] (30 μM, 24 h, TM-1 cells Y437H myocilin, Western blot) is no less than 50%. Also, in assay [5] (human trabecular meshwork cells, concentration not given), the “intracellular accumulation of mutant myocilin” value is reported as “reduced the intracellular accumulation of mutant myocilin”. Also, in assay [6], the Kd stood at 9.17 ± 0.86 µM. Moreover, the wild-type myocilin expression result in assay [7] is “statistically significant decrease”.
